Assays:
[1] = Selectivity index, ratio of GI50 for human K562 cells to GI50 for human MV4-11 cells; assay type: functional
[2] = Cmax in ICR mouse at 10 mg/kg, iv or po measured up to 1440 mins by LC-MS/MS analysis; assay type: ADME, organism-based; set-up: dose 10 mg/kg, time <=1440; settings: in vivo
[3] = Acute toxicity in ICR mouse assessed as median lethal dose; settings: in vivo
[4] = Oral bioavailability in ICR mouse at 10 mg/kg measured up to 1440 mins by LC-MS/MS analysis; assay type: ADME, organism-based; settings: in vivo
[5] = target: BDNF/NT-3 growth factors receptor (Homo sapiens, UniProt Q16620); experiment: Inhibition of human TrkB at 100 nM in presence of ATP relative to control
[6] = target: Receptor-type tyrosine-protein kinase FLT3 (Homo sapiens, UniProt P36888, D835Y); experiment: Inhibition of human FLT3 D835Y mutant in presence of ATP
[7] = target: Proto-oncogene tyrosine-protein kinase receptor Ret (Homo sapiens, UniProt P07949); experiment: Inhibition of human RET at 100 nM in presence of ATP relative to control
K562 = experiment: Antiproliferative activity against human K562 cells assessed as cell growth inhibition by WST assay; assay type: functional
[8] = target: Vascular endothelial growth factor receptor 3 (Homo sapiens, UniProt P35916); experiment: Inhibition of human FLT4 at 100 nM in presence of ATP relative to control
MOLM-14 [9] = experiment: cells; settings: Homo sapiens
Description: Antiproliferative activity against human MOLM14 cells harboring ITD/D835Y mutant assessed as cell growth inhibition by MTT assay

MOLM-14 [10] = experiment: cells; settings: Homo sapiens; remark: listed apart in the source
Description: Antiproliferative activity against wild type human MOLM14 cells assessed as cell growth inhibition by MTT assay

MOLM-14 [11] = experiment: cells; settings: Homo sapiens; remark: listed apart in the source
Description: Antiproliferative activity against human MOLM14 cells harboring ITD/F691L mutant assessed as cell growth inhibition by MTT assay

[12] = target: Cyclin-dependent kinase 5 (Homo sapiens) (UniProt Q00535); experiment: Inhibition of human CDK5 at 100 nM in presence of ATP relative to control
[13] = target: Receptor-type tyrosine-protein kinase FLT3 (Homo sapiens) (UniProt P36888); experiment: Inhibition of human FLT3 at 100 nM in presence of ATP relative to control
[14] = target: Maternal embryonic leucine zipper kinase (Homo sapiens, UniProt Q14680); experiment: Inhibition of human MELK in presence of ATP
[15] = target: Tyrosine-protein kinase Mer (Homo sapiens) (UniProt Q12866); experiment: Inhibition of human MER at 100 nM in presence of ATP relative to control
Chain of Tyrosine-protein kinase Mer (Homo sapiens) (Q12866 whole entry): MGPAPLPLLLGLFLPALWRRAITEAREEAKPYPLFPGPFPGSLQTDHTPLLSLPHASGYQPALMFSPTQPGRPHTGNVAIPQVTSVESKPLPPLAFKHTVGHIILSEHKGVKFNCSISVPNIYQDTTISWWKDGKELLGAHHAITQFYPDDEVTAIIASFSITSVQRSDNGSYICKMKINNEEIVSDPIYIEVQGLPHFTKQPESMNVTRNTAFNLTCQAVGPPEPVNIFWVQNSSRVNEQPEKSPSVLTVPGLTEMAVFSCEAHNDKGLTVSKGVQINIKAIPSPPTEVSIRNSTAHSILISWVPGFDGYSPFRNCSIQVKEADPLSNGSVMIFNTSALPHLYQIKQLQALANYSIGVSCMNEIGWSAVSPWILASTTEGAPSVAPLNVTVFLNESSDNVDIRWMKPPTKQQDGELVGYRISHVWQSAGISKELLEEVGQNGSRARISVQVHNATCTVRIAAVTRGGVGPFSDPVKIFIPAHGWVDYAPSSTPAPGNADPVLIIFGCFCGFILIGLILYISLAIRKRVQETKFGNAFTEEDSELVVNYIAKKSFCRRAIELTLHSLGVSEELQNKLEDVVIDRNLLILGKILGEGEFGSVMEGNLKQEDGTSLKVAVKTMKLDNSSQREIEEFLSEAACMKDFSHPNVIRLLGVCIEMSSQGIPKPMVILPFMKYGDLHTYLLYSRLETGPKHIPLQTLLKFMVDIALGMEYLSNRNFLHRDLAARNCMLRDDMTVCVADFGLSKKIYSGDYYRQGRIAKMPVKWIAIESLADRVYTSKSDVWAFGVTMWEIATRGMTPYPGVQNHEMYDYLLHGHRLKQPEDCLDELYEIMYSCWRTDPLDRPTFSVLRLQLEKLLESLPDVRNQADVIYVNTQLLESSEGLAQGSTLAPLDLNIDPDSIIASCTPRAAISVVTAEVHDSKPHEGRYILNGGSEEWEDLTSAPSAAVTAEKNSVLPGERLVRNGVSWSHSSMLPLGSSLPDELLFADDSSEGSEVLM

Chain of Vascular endothelial growth factor receptor 3 (P35916 whole entry): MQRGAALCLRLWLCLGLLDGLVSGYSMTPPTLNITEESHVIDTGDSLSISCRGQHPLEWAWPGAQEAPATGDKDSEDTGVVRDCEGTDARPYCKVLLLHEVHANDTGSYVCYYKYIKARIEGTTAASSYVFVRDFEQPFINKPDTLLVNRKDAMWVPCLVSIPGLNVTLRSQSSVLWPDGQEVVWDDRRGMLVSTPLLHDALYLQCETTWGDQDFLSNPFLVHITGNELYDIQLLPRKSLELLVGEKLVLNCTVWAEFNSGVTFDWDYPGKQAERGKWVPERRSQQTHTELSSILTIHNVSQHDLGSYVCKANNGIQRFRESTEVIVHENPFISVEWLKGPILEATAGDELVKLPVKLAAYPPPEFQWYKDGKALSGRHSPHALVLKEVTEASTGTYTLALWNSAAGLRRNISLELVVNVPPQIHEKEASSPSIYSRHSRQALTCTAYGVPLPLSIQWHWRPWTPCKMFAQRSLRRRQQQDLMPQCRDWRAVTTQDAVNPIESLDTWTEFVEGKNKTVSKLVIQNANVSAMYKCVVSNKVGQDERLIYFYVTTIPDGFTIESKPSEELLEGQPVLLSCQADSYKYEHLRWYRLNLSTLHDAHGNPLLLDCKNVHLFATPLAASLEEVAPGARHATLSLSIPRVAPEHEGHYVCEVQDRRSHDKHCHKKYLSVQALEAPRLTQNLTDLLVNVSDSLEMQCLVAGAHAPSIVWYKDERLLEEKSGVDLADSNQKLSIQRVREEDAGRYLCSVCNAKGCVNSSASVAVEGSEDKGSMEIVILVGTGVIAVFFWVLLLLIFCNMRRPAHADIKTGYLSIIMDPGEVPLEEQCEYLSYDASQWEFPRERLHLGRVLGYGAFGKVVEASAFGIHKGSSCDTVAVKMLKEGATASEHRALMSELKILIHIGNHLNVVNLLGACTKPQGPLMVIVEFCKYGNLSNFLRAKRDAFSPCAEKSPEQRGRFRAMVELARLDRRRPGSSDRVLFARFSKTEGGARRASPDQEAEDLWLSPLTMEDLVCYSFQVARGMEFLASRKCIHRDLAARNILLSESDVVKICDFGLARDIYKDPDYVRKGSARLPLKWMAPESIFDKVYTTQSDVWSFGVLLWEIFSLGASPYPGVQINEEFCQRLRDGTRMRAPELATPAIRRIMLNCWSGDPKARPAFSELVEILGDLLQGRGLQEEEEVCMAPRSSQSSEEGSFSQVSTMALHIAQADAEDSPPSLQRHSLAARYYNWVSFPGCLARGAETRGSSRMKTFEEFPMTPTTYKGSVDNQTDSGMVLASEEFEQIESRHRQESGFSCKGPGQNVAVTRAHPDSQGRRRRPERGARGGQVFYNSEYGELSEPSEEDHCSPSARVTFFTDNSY
Chain of Maternal embryonic leucine zipper kinase (Q14680 whole entry): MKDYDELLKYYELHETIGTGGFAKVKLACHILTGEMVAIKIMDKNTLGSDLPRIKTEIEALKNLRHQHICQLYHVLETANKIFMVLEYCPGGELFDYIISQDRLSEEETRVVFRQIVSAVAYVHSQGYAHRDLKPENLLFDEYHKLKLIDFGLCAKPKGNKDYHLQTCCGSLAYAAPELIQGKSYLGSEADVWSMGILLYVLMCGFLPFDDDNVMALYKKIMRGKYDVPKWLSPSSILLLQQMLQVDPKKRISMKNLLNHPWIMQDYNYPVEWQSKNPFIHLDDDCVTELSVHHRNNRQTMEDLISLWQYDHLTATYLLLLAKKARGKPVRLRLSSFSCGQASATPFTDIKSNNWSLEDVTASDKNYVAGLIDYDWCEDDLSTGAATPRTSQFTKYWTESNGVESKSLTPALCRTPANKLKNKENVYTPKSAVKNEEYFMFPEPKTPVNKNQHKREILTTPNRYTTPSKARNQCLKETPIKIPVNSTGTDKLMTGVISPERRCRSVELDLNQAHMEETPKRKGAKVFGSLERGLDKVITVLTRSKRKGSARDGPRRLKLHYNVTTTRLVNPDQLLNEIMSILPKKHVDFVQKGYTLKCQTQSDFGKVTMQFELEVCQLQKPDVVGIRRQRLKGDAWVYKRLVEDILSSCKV
Chain of BDNF/NT-3 growth factors receptor (Q16620 32-822 limits assumed): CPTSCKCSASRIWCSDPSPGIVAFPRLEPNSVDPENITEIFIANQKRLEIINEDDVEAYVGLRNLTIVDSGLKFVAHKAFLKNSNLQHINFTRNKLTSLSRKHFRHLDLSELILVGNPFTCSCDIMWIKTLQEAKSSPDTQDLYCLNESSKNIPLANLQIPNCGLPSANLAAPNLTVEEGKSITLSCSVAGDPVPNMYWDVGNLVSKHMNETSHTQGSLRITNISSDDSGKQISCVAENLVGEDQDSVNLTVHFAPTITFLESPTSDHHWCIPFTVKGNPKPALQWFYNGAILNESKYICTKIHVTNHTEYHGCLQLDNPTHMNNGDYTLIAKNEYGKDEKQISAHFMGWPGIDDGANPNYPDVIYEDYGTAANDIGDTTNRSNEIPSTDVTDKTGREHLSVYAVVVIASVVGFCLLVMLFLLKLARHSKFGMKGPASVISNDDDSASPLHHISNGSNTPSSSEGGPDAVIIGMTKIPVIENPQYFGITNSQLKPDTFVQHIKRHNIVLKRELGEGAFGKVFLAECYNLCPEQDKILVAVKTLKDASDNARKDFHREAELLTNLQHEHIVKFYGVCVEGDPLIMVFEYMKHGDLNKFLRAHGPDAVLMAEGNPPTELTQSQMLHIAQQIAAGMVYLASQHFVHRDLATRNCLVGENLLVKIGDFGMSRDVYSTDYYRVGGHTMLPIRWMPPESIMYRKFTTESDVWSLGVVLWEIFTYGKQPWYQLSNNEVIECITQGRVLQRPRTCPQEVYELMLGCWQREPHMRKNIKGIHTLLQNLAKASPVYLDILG
Chain of Proto-oncogene tyrosine-protein kinase receptor Ret (P07949 whole entry): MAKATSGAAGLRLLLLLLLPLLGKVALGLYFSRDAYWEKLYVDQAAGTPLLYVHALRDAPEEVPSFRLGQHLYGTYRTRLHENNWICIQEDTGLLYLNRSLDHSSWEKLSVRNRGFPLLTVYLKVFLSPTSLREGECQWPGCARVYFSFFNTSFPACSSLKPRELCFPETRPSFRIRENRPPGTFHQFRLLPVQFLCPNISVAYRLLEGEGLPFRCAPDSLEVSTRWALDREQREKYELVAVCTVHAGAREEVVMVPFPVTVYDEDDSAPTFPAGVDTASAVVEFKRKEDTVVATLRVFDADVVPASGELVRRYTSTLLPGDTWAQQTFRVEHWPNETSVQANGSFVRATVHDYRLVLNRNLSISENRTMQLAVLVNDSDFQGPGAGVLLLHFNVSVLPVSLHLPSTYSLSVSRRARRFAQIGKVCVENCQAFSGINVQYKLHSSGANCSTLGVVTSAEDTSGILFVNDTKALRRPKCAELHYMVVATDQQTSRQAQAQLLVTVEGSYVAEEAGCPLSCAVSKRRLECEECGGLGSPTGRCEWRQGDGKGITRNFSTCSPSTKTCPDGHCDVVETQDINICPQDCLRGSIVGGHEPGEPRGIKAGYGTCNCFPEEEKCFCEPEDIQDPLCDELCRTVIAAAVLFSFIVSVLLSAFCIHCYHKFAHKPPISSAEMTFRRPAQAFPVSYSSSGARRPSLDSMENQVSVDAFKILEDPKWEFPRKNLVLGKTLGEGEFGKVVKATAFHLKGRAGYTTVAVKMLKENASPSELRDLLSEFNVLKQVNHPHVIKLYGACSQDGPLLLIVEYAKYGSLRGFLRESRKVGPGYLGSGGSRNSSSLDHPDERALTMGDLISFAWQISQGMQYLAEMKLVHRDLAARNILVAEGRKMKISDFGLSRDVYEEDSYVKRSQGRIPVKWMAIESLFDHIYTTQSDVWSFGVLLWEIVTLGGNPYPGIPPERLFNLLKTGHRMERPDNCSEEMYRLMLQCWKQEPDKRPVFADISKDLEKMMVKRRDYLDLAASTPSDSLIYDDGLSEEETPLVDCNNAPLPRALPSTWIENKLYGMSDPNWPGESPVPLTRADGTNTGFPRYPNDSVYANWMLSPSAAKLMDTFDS

Compound `Cl.O=C1Nc2ccc(F)cc2/C1=C1/Nc2ccccc2/C1=N\OCCN1CCNCC1` has a RatioGI50 [1] of 430, a Cmax [2] of 36.5 ng/mL and an LD50 [3] of 4950 mg/kg. The bioavailability [4] was 42.6%, the inhibition [5] was 100% and the IC50 [6] was 0.32 nM. The inhibition [7] was 98%, the GI50 (K562) was 437 nM and the inhibition [8] was 89%. The GI50 (MOLM-14 [9]) was 1.87 nM, the GI50 (MOLM-14 [10]) was 4.88 nM and the GI50 (MOLM-14 [11]) was 3.27 nM. The inhibition [12] was 54%, the inhibition [13] was 98% and the IC50 [14] was 5.54 nM. For the same compound, the inhibition [15] was 100%.

— ChEMBL document CHEMBL4765285, “Discovery of orally active indirubin-3'-oxime derivatives as potent type 1 FLT3 inhibitors for acute myeloid leukemia” (Eur J Med Chem, 2020)
